In patent US6989401B2, “Sulfonic acid derivatives of hydroxamic acids and their use as medicinal products” (Mitsubishi Pharma Corporation, priority 2000, dated 2006):
Where two headings read alike, the source gives them in different places.

Experiments:
[1] = tested on: LPS in rat peritonitis (CLP; cecal ligation and puncture) model; assay: Inhibitory effect on LPS that increases in rat peritonitis (CLP) model; format: in vivo; conditions: iv, continuous tail vein infusion 2.5 mg/kg/hr
Description: Rat peritonitis (CLP; cecal ligation and puncture) model was prepared according to the method of Wichterman et al. (J. Surg. Res. 29, 189-201 <1980>). That is, a rat fasted overnight was anesthetized with ether, and a midline laparotomy was performed and the cecum was exposed. The cecum was ligated with a 3-0 silk thread at its base and perforated two times with an 18 G injection needle. The cecum was gently squeezed to extrude feces, which were spread around the abdomen, and the sectioned part was sutured. The animal was fixed in a Borrmann cage, and physiological saline or drug solution ([…]) was continuously given from the tail vein at an administration rate of 2.5 mg/kg/hr with an infusion pump (22 M, Harvard, 5 mL/kg/hr as a dose).
After 6 hr of the CLP treatment, the animal was sacrificed with carbonic acid gas. The abdominal cavity was washed by injecting phosphate buffered saline (PBS; 37° C., 10 mL) and the abdominal cavity washing containing ascites (PLF; peritoneal lavage fluid) was recovered. The recovery weight of the obtained PLF was measured, and PLF was centrifuged (1500 rpm for 5 min, 4° C.) to recover supernatant. The blood taken from the heart was centrifuged (3000 rpm for 10 min, 4° C.) using a serum separation tube, and the serum was recovered. The concentration of LPS in the abdominal cavity and serum was measured using Toxinometer MT-285 (Waco Pure Chemical Industries) preheated to 37° C., after diluting the supernatant and serum of the recovered PLF 10^5-fold and 10^2-fold, respectively, with sterile distilled water, and adding 200 μL thereof to a limulus reagent (LAL ES, Waco Pure Chemical Industries). The amount of LPS per abdominal cavity was calculated from amount of recovered abdominal cavity washing (PLF)×LPS concentration of PLF.
The LPS inhibitory ratio of the compound was calculated as the ratio of LPS concentration of the compound administration group to LPS concentration of the physiological saline administration group.

[2] = tested on: LPS in E. coli culture supernatant (E. coli NIHJ JC-2 strain); assay: Inhibitory effect on LPS in E. coli culture supernatant; format: cell-based; conditions: 24 hr; for inhibitory effect of compound on LPS in E. coli culture supernatant, relative ratio: relative ratio to the inhibitory ratio of the compound of Example 1 as 1.0, compound 100 μM
Description: One platinum loop of E. coli NIHJ JC-2 strain was inoculated into a test tube containing heart infusion broth (HIB, 5 mL) and cultured for about 24 hr. The bacterial culture broth was washed three times by centrifugation (3000 rpm, 15 min, 20° C., TOMY Seiko, RL-131) using 10 mL of fresh HIB medium for one cycle of washing. The washed bacteria were prepared to an about 10^7 colony forming unit (CFU)/mL with a fresh HIB medium, and 0.2 mL of the prepared bacterial suspension was inoculated into an Erlenmeyer flask containing a fresh HIB medium (18.8 mL) (i.e., to final bacterial concentration of about 10^5 CFU/mL). A solution (1 mL) of each compound prepared to a concentration of 2 mM (final concentration of compound 100 μM) was added to the culture broth containing the bacteria. Using a shaker (RGR-1 type, manufactured by IWASHIYA, Ltd.), shake culture was conducted at 37° C., and 2 mL of culture broth after 24 hr was sampled. The sampled culture broth was filtered (DISMIC, 0.45 μm, Advantech Toyo) and diluted 10^5-fold with sterile distilled water. The resulting suspension (200 μL) was added to a limulus reagent (LAL ES, Wako Pure Chemical Industries) and LPS concentration was measured using Toxinometer MT-285 (Wako Pure Chemical Industries) preheated to 37° C.
The LPS inhibitory ratio of the compound was calculated as a ratio of the LPS concentration of the compound addition group relative to the LPS concentration of the compound non-addition group. […] The inhibitory ratio of each compound is shown in the following in Table 1 as a relative ratio to the inhibitory ratio of the compound of Example 1 as 1.0.

[3] = peritoneal lavage fluid 6 hr after CLP, read-out: LPS inhibitory ratio (%) in abdominal cavity
[4] = serum 6 hr after CLP, read-out: LPS inhibitory ratio (%) in blood

| SMILES | inhibitory effect of compound on LPS in E. coli culture supernatant, relative ratio [2] | inhibitory effect of compound on LPS in E. coli culture supernatant, relative ratio ([2]; sodium salt) | further results |
| --- | --- | --- | --- |
| CC(C)C[C@@H](C(=O)N[C@@H](Cc1ccccc1)C(=O)NCS(=O)(=O)[O-])C(CN1C(=O)c2ccccc2C1=O)C(=O)NO.[Na+] (single isomer, unassigned) [Example 15, 5-methyl-3(R)-[2-phenyl-1(S)-(sulfomethylcarbamoyl)ethylcarbamoyl]-2(R or S)-phthalimidomethylhexanohydroxamic acid sodium salt] | 1.05 |  | inhibition in vivo at 2.5 mg/kg/h [1, 3]: 70.3%; inhibition in vivo at 2.5 mg/kg/h [1, 4]: 68.2% |
| CNC(=O)[C@@H](Cc1ccc(OCCCS(=O)(=O)[O-])cc1)NC(=O)[C@@H](CC(C)C)C(CN1C(=O)c2ccccc2C1=O)C(=O)NO.[Na+] (single isomer, unassigned) [Example 8, 5-methyl-3(S)-{1(R)-methylcarbamoyl-2-[4-(3-sulfopropoxy)phenyl]ethylcarbamoyl}-2(R or S)-phthalimidomethylhexanohydroxamic acid sodium salt] |  | 0.60 |  |
| CNC(=O)[C@@H](Cc1ccc(OCCCS(=O)(=O)[O-])cc1)NC(=O)[C@H](CC(C)C)C(CN1C(=O)c2ccccc2C1=O)C(=O)NO.[Na+] (single isomer, unassigned) [Example 5, 5-methyl-3(R)-{1(R)-methylcarbamoyl-2-[4-(3-sulfopropoxy)phenyl]ethylcarbamoyl}-2(R or S)-phthalimidomethylhexanohydroxamic acid sodium salt] |  | 0.80 |  |
| CNC(=O)[C@H](Cc1ccc(OCCCCS(=O)(=O)[O-])cc1)NC(=O)[C@H](CC(C)C)C(CN1C(=O)c2ccccc2C1=O)C(=O)NO.[Na+] (single isomer, unassigned) [Example 11, 5-methyl-3(R)-{1(S)-methylcarbamoyl-2-[4-(4-sulfobutoxy)phenyl]ethylcarbamoyl}-2(R or S)-phthalimidomethylhexanohydroxamic acid sodium salt] | 0.74 |  | inhibition in vivo at 2.5 mg/kg/h [1, 3]: 5.5%; inhibition in vivo at 2.5 mg/kg/h [1, 4]: 36.2% |
| CC(C)C[C@@H](C(=O)N[C@@H](Cc1ccccc1)C(=O)NCCS(=O)(=O)[O-])C(CN1C(=O)c2ccccc2C1=O)C(=O)NO.[Na+] (single isomer, unassigned) [Example 17, 5-methyl-3(R)-[2-phenyl-1(S)-(2-sulfoethylcarbamoyl)ethylcarbamoyl]-2(R or S)-phthalimidomethylhexanohydroxamic acid sodium salt] | 0.78 |  | inhibition in vivo at 2.5 mg/kg/h [1, 3]: 14.4%; inhibition in vivo at 2.5 mg/kg/h [1, 4]: 59.1% |
| CNC(=O)[C@H](Cc1ccc(OCCCS(=O)(=O)[O-])cc1)NC(=O)[C@H](CC(C)C)C(CN1C(=O)c2ccccc2C1=O)C(=O)NO.[Na+] (single isomer, unassigned) [Example 1, 5-methyl-3(R)-{1(S)-methylcarbamoyl-2-[4-(3-sulfopropoxy)phenyl]ethylcarbamoyl}-2(R or S)-phthalimidomethylhexanohydroxamic acid sodium salt] |  | 1.0 | inhibition in vivo at 2.5 mg/kg/h [1, 3]: 88.3%; inhibition in vivo at 2.5 mg/kg/h [1, 4]: 79.9%; LPS inhibitory ratio ([2]; final concentration of compound 100 μM, shake culture 37° C., limulus reagent): 46.5-65.8% |
| CNC(=O)[C@H](Cc1ccc(OCCCS(=O)(=O)[O-])cc1)NC(=O)[C@H](CC(C)C)C(CN1C(=O)c2ccccc2C1=O)C(=O)NO.[Na+] (single isomer, unassigned) [Example 4, 5-methyl-3(R)-{1(S)-methylcarbamoyl-2-[4-(3-sulfopropoxy)phenyl]ethylcarbamoyl}-2(R or S)-phthalimidomethylhexanohydroxamic acid sodium salt] |  | 0.69 |  |
| CC(C)C[C@@H](C(=O)N[C@@H](Cc1ccccc1)C(=O)NCS(=O)(=O)[O-])C(Cc1ccc2ccccc2c1)C(=O)NO.[Na+] (single isomer, unassigned) [Example 25, 5-methyl-2(R or S)-(2-naphthylmethyl)-3(R)-[2-phenyl-1(S)-(sulfomethylcarbamoyl)ethylcarbamoyl]hexanohydroxamic acid sodium salt] | 0.33 |  |  |
| CNC(=O)[C@@H](Cc1ccc(OCCCS(=O)(=O)[O-])cc1)NC(=O)[C@@H](CC(C)C)C(CN1C(=O)c2ccccc2C1=O)C(=O)NO.[Na+] (single isomer, unassigned) [Example 6, 5-methyl-3(S)-{1(R)-methylcarbamoyl-2-[4-(3-sulfopropoxy)phenyl]ethylcarbamoyl}-2(R or S)-phthalimidomethylhexanohydroxamic acid sodium salt] |  | 0.69 |  |
| CNC(=O)[C@H](Cc1ccc(OCCCS(=O)(=O)[O-])cc1)NC(=O)[C@@H](CC(C)C)C(CN1C(=O)c2ccccc2C1=O)C(=O)NO.[Na+] (single isomer, unassigned) [Example 7, 5-methyl-3(S)-{1(S)-methylcarbamoyl-2-[4-(3-sulfopropoxy)phenyl]ethylcarbamoyl}-2(R or S)-phthalimidomethylhexanohydroxamic acid sodium salt] |  | 0.79 |  |
| CNC(=O)[C@@H](Cc1ccc(OCCCS(=O)(=O)[O-])cc1)NC(=O)[C@H](CC(C)C)C(CN1C(=O)c2ccccc2C1=O)C(=O)NO.[Na+] (single isomer, unassigned) [Example 3, 5-methyl-3(R)-{1(R)-methylcarbamoyl-2-[4-(3-sulfopropoxy)phenyl]ethylcarbamoyl}-2(R or S)-phthalimidomethylhexanohydroxamic acid sodium salt] |  | 0.70 |  |
| CNC(=O)[C@H](Cc1ccc(OCCCCCS(=O)(=O)[O-])cc1)NC(=O)[C@H](CC(C)C)C(CN1C(=O)c2ccccc2C1=O)C(=O)NO.[Na+] (single isomer, unassigned) [Example 12, 5-methyl-3(R)-{1(S)-methylcarbamoyl-2-[4-(5-sulfopentoxy)phenyl]ethylcarbamoyl}-2(R or S)-phthalimidomethylhexanohydroxamic acid sodium salt] | 0.85 |  |  |
| CNC(=O)[C@H](Cc1ccc(OCCCS(=O)(=O)[O-])cc1)NC(=O)[C@@H](CC(C)C)C(CN1C(=O)c2ccccc2C1=O)C(=O)NO.[Na+] (single isomer, unassigned) [Example 9, 5-methyl-3(S)-{1(S)-methylcarbamoyl-2-[4-(3-sulfopropoxy)phenyl]ethylcarbamoyl}-2(R or S)-phthalimidomethylhexanohydroxamic acid sodium salt] |  | 0.51 |  |
| CC(C)C[C@@H](C(=O)N[C@@H](Cc1ccccc1)C(=O)NCCS(=O)(=O)[O-])C(Cc1ccc2ccccc2c1)C(=O)NO.[Na+] (single isomer, unassigned) [Example 26, 5-methyl-2(R or S)-(2-naphthylmethyl)-3(R)-[2-phenyl-1(S)-(2-sulfoethylcarbamoyl)ethylcarbamoyl]hexanohydroxamic acid sodium salt] | 0.54 |  |  |
